Test results published in ChEMBL document CHEMBL3045448, “Enantioselective effects of optically active alpha-methylbenzyl-s-triazine on the root growth of rice and Echinochloa plants and their herbicidal activity” (Biosci Biotechnol Biochem, 2002).
Active and inactive are the calls of the source. The calls are words filed in the database; no cut-off is given here.

Experiments:
Oryza sativa = assay: Phytotoxicity in germinated seedlings of Oryza sativa (rice) assessed as root growth inhibition at 30 uM after 3 to 4 days; format: organism-based; settings: in vivo
Echinochloa oryzicola [1] = assay: Herbicidal activity against Echinochloa oryzicola seedlings assessed as appearance of leaf burn symptom after 3 weeks by paddy pot test under green house conditions; format: functional, organism-based
Echinochloa oryzicola [2] = assay: Herbicidal activity against sprouting stage of Echinochloa oryzicola seedlings assessed as growth inhibition after 3 weeks by paddy pot test under green house conditions; format: functional, organism-based
[3] = system: Echinochloa crus-galli var. formosensis; assay: Phytotoxicity in germinated seedlings of Echinochloa crus-galli var. formosensis (barnyard millet) assessed as root growth inhibition at 30 uM after 3 to 4 days; format: organism-based; settings: in vivo
Echinochloa oryzicola [4] = assay: Herbicidal activity against Echinochloa oryzicola seedlings measured per 10 acres after 3 weeks by paddy pot test under green house conditions; format: functional

## CCCNc1nc(Cl)nc(N[C@H](C)c2ccccc2)n1
Oryza sativa
  growth inhibition (GI): Toxic

## CCNc1nc(Cl)nc(NC(C)c2ccccc2)n1 (configuration not stated)
Echinochloa oryzicola [1]
  Activity: Active
Echinochloa oryzicola [2]
  growth inhibition (GI): Active

## CCNc1nc(Cl)nc(NC(C)C)n1
Echinochloa oryzicola [1]
  Activity: Active

## CC[C@H](C)Nc1nc(Cl)nc(N[C@H](C)c2ccccc2)n1
Oryza sativa
  growth inhibition (GI): Toxic

## CCNc1nc(Cl)nc(N[C@H](C)c2ccccc2)n1
Echinochloa oryzicola [1]
  Activity: Active
Echinochloa oryzicola [2]
  growth inhibition (GI): Active

## CCN(CC)c1nc(Cl)nc(NC(C)c2ccccc2)n1 (configuration not stated)
Echinochloa oryzicola [2]
  growth inhibition (GI): Active

## CCCN(C)c1nc(Cl)nc(N[C@H](C)c2ccccc2)n1
Oryza sativa
  growth inhibition (GI): Toxic

## CCCCNc1nc(Cl)nc(N[C@H](C)c2ccccc2)n1
Oryza sativa
  growth inhibition (GI): Toxic

## CCCN(CC)c1nc(Cl)nc(N[C@H](C)c2ccccc2)n1
[3]
  growth inhibition (GI): Toxic

## CCN(CC)c1nc(Cl)nc(N[C@H](C)c2ccccc2)n1
Echinochloa oryzicola [4]
  Activity: 250 g
Echinochloa oryzicola [2]
  growth inhibition (GI): Active

## C[C@@H](Nc1nc(Cl)nc(NC(C)(C)C)n1)c1ccccc1
[3]
  growth inhibition (GI): Toxic

## CNc1nc(Cl)nc(N[C@@H](C)c2ccccc2)n1
Oryza sativa
  growth inhibition (GI): Toxic

## CCCN(CCC)c1nc(Cl)nc(N[C@H](C)c2ccccc2)n1
Oryza sativa
  growth inhibition (GI): Toxic
[3]
  growth inhibition (GI): Toxic

## CCN(CC)c1nc(Cl)nc(N[C@@H](C)c2ccccc2)n1
Echinochloa oryzicola [2]
  growth inhibition (GI): Active

## CCNc1nc(Cl)nc(N[C@@H](C)c2ccccc2)n1
Echinochloa oryzicola [1]
  Activity: Active
Oryza sativa
  growth inhibition (GI): Toxic

## CCC(CC)Nc1nc(Cl)nc(N[C@H](C)c2ccccc2)n1
Oryza sativa
  growth inhibition (GI): Toxic
[3]
  growth inhibition (GI): Toxic
